Measurements from patent publication US20120108629A1, “New use of neferine” (Institute of Chinese Materia Medica, China Academy, priority 2009, published 2012).

What was measured:
[1] = test system: Human pancreas cancer cell line MIAPaCa-2; experiment: Inhibition on proliferation of human cancer cells, MIAPaCa-2; assay type: cell-based
From the text: (§1) Inhibition on proliferation of human cancer cells: It is reported that the drugs that up-regulate TRPM8 or down-regulate TRPV1 can inhibit proliferation of breast cancer. To further investigate whether neferine follow the same way, human breast cancer cell line MDA-MB-231 and MDA-MB-453 as well as cancer gene-containing human breast gland epithelial cell line MCF10A-Myc and human pancreatic cancer cell line MIAPaCa-2 were employed and cultured in DMEM or DMEM/F12 medium with epithelial growth factor in vitro. After incubation with various concentrations of test agents for 72 h, the effective concentration of them for inhibiting the tumor cells was assayed according to the common method in the art.
(§2) According to the “Inhibition on proliferation of human cancer cells” described above, the effective concentrations of neferine for the inhibition of tumors were obtained (table 11).

TRPV1 [2] = experiment: Intracellular calcium change in DRG cells, Fluo-4 fluorescence (Examples 4-5, Tables 4-5); assay type: cell-based, rat
Method: (§3) Detection of intracellular calcium concentrations of DRG cells: DRG cells cultured under normal, low and high temperature conditions was obtained. The medium was discarded and the cells were washed after certain time. 0.1%F-127, 5 μM of Fluo-4-AM, M fluorescent dye were added and loaded at 25° C. out of light for 30 min. After dye loading, the redundant dye was washed out and buffer and test compounds were added respectively. The cells were put in a closed chamber on a microscope stage. Fluorescence dyed cells were detected with appropriate conditions. The change of fluorescence intensity in each cell was determined and the data were analyzed by software. The change of the intracellular calcium concentration was indicated by fluorescence intensity. The change degree of the intracellular calcium concentration was represented by the percent ratio of the change value of fluorescence intensity before and after administration and the value of fluorescence intensity before administration (Δ[Ca2+]i), i.e. Δ[Ca2+]i=(fluorescence intensity value after administration F-fluorescence intensity value before administration F0)/fluorescence intensity value before administration F0×100%. The change of the intracellular calcium concentration indicated the function of TRP.
(§4) The medium was discarded and the fluorescent dye was added and loaded for 30 min. The change of fluorescence intensity in cell was determined in a closed chamber on a microscope stage and the change of the intracellular calcium concentration was assayed.
as §4

TRPV1 mRNA = TRPV1 mRNA expression in DRG cells by real-time PCR; assay type: cell-based, rat; conditions: for TRPV1 mRNA expression (2^−ΔΔCT): 37° C. 24 h
TRPV1 [3] = target: TRPV1 (Rattus norvegicus, UniProt O35433); experiment: Intracellular calcium change in DRG cells, Fluo-4 fluorescence (Examples 9-11, Tables 9-11); assay type: cell-based
Method: as §3, §4, §4
(this is the appropriate stimulation time for the intracellular calcium change after stimulation under 19° C., and the experiment data was not shown). The medium was discarded and the fluorescent dye was added and loaded for 30 min.

breast cancer cells = experiment: Inhibition on proliferation of human cancer cells, breast cancer cells; assay type: cell-based
From the text: as §1, §2

[4] = test system: Cancer gene-containing human breast epithelial cell line MCF10A-Myc; experiment: Inhibition on proliferation, MCF10A-Myc; assay type: cell-based; conditions: 72 h incubation
From the text: as §1, §2

TRPM8 mRNA = TRPM8 mRNA expression in DRG cells by real-time PCR; conditions: for Effect on TRPM8 mRNA expression (in words) / TRPM8 mRNA expression (2^−ΔΔCT): DRG cells
Method: DRG were aseptically removed and meticulously cleaned the rootlets and connective tissue. The tissue was digested with collagenase and trypsin in succession, and then centrifuged and the digestive liquid was discarded. Cells were prepared into single cell suspension in common culture medium, and then calculated and adjusted to 10^5 nerve cells per ml. It was incubated in culture plates pre-coated with laminin at 37° C. in 5% CO2 for 48 hours. Camptothecine was used to inhibit proliferation of other cells. Culture was continued to obtain DRG cells with a high purity (>98%).
Detection of TRPM8 and TRPV1 mRNA expression: The total RNA of the DRG neuronal cells was extracted in a routine way, after exposure to the tested agents of various concentrations under the normal, low and high temperature conditions respectively. The concentration of RNA was measured and its cDNA was prepared. The desired amount of resulting cDNA and TRPM8 or TRPV1 gene primers were added on the IQ5-Type real-time IQ5-Type real-time PCR meter with GAPDH as the endogenous control to perform extension. Melting curves were generated. Relative gene expression was calculated using the comparative threshold cycle (2-^ΔΔCT) method with the calculated formula as following:
ΔΔCt=(Ct,Target-Ct,GAPDH)x-(Ct,Target-Ct,GAPDH)Control
X represents any one of tested, Control represents double target gene expression after GAPDH correction.
The purified culture medium of DRG cells was added with three different concentrations of test compounds and cultured at 37° C. in 5% CO2 for 24 h. The total RNA was extracted immediately after culture. The TRPM8 agonist hexahydrothymol was positive control group and the normal culture medium was vehicle control group. Then the real-time PCR amplification was performed and TRPM8 mRNA was determined.
The purified culture medium of DRG cells was added with three different concentrations of test compounds and cultured at 37° C. in 5% CO2 for 23 h followed by 39° C. in 5% CO2 for 1 h. The total RNA was extracted immediately after culture. The TRPM8 agonist hexahydrothymol was positive control group and the normal culture medium was vehicle control group. Then the real-time PCR amplification was performed and TRPM8 mRNA was determined.
The purified culture medium of DRG cells was added with three different concentrations of test compounds and cultured at 37° C. in 5% CO2 for 22 h followed by 19° C. in 5% CO2 for 2 h. The total RNA was extracted immediately after culture. The TRPM8 agonist hexahydrothymol was positive control group and the normal culture medium was vehicle control group. Then the real-time PCR amplification was performed and TRPM8 mRNA was determined.

[5] = test system: Human breast cancer cell line MDA-MB-231; experiment: Inhibition on proliferation of human cancer cells, MDA-MB-231; assay type: cell-based; conditions: MDA-MB-231, 72 h incubation
From the text: as §1, §2

[6] = test system: Human breast cancer cell line MDA-MB-453; experiment: Inhibition on proliferation of human cancer cells, MDA-MB-453; assay type: cell-based; conditions: MDA-MB-453, 72 h incubation
From the text: as §1, §2

[7] = 37° C. 22 h then 19° C. 2 h, 2.5 μmol/L
[8] = 37° C. 22 h then 19° C. 2 h, 5 μmol/L
[9] = 37° C. 22 h then 19° C. 2 h, 10 μmol/L
[10] = 37° C. 23 h then 39° C. 1 h, 2.5 μmol/L
[11] = 37° C. 23 h then 39° C. 1 h, 5 μmol/L
[12] = 37° C. 23 h then 39° C. 1 h, 10 μmol/L

Chain of TRPV1 (Rattus norvegicus, UniProt O35433) (O35433 whole entry): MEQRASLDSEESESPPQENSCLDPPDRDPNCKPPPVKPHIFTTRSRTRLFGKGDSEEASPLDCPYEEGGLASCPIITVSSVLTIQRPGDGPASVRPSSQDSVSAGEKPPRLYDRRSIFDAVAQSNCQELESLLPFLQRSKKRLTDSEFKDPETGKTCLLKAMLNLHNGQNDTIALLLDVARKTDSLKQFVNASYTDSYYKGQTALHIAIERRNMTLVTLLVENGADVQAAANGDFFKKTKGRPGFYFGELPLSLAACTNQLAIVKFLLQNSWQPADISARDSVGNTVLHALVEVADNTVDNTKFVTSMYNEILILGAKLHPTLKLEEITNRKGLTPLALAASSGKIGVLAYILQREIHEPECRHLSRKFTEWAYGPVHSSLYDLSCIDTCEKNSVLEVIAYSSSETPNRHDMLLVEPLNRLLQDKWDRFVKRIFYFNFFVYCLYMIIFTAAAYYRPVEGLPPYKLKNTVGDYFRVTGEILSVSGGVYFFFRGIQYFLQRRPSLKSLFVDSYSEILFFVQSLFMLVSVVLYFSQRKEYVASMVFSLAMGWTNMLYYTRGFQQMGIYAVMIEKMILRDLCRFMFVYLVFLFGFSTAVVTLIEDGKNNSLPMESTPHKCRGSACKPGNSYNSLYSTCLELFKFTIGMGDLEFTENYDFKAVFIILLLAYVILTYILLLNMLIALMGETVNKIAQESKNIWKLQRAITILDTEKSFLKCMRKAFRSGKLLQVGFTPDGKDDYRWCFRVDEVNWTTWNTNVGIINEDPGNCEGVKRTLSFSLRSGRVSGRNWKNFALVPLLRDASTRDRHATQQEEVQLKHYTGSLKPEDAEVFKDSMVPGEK

neferine
Inhibition concentration ([1]; MIAPaCa-2, 72 h incubation): 3.64 µg/mL | inhibition concentration for pancreas ([1]; pancreas cancer cells): below 4 μg/ml | Effect on intracellular calcium concentration (in words) (TRPV1 [2]; Example 4, DRG cells, 37° C.): increase the intracellular calcium concentration dose-dependently | Intracellular Calcium changes [(F1 − F0)/F0/%] (TRPV1 [2]; Table 4, DRG cells, 37° C. 24 h, 2.5 μmol/L): 121.41 ± 10.05% | Intracellular Calcium changes [(F1 − F0)/F0/%] (TRPV1 [2]; Table 4, DRG cells, 37° C. 24 h, 5 μmol/L): 128.16 ± 11.48% | Intracellular Calcium changes [(F1 − F0)/F0/%] (TRPV1 [2]; Table 4, DRG cells, 37° C. 24 h, 10 μmol/L): 132.07 ± 19.30 % | Intracellular Calcium changes [(F1 − F0)/F0/%] (TRPV1 [2]; Table 5, DRG cells, 37° C. 22 h then 39° C. 2 h, 2.5 μmol/L): 107.88 ± 13.07% | Intracellular Calcium changes [(F1 − F0)/F0/%] (TRPV1 [2]; Table 5, DRG cells, 37° C. 22 h then 39° C. 2 h, 5 μmol/L): 108.09 ± 12.85% | Intracellular Calcium changes [(F1 − F0)/F0/%] (TRPV1 [2]; Table 5, DRG cells, 37° C. 22 h then 39° C. 2 h, 10 μmol/L): 112.72 ± 11.74 % | Effect on TRPV1 mRNA expression (in words) (TRPV1 mRNA; 19° C.): further inhibit expression levels of TRPV1 mRNA dose-dependently | TRP V1 mRNA expression(2^−ΔΔCT) (TRPV1 mRNA; [7]): 0.54 ± 0.17 | TRP V1 mRNA expression(2^−ΔΔCT) (TRPV1 mRNA; [8]): 0.47 ± 0.20 | TRP V1 mRNA expression(2^−ΔΔCT) (TRPV1 mRNA; [9]): 0.45 ± 0.23 | TRP V1 mRNA expression(2^−ΔΔCT) (TRPV1 mRNA; [10]): 4.16 ± 0.71 | TRP V1 mRNA expression(2^−ΔΔCT) (TRPV1 mRNA; [11]): 3.70 ± 0.69 | TRP V1 mRNA expression(2^−ΔΔCT) (TRPV1 mRNA; [12]): 3.13 ± 0.51 | TRPV1 mRNA expression (2^−ΔΔCT) (TRPV1 mRNA; 2.5 μmol): 0.96 ± 0.41 | TRPV1 mRNA expression (2^−ΔΔCT) (TRPV1 mRNA; 5 μmol): 1.09 ± 0.30 | TRPV1 mRNA expression (2^−ΔΔCT) (TRPV1 mRNA; 10 μmol): 1.04 ± 0.43 | Effect on TRPV1 mRNA expression (in words) (TRPV1 mRNA; 37° C., under the test concentrations): could not change expression levels of TRPV1 mRNA | Effect on TRPV1 mRNA expression (in words) (TRPV1 mRNA; 39° C.): decrease the expression levels of TRPV1 mRNA dose-dependently | Effect on intracellular calcium concentration (in words) (TRPV1 [3]; Example 9, DRG cells, 37° C.): decrease the concentration of intracellular calcium dose-dependently | correlation coefficient of dose dependence, intracellular calcium (TRPV1 [3]; Example 9, DRG cells, 37° C.): −0.85 | Effect on intracellular calcium concentration (in words) (TRPV1 [3]; Example 10, DRG cells, 39° C.): inhibit the change of the intracellular calcium concentration dose-dependently | correlation coefficient of dose dependence, intracellular calcium (TRPV1 [3]; Example 10, DRG cells, 39° C.): −0.815 | Effect on intracellular calcium concentration (in words) (TRPV1 [3]; Example 11, DRG cells, 19° C.): further inhibit the change of the intracellular calcium concentration dose-dependently | correlation coefficient of dose dependence, intracellular calcium (TRPV1 [3]; Example 11, DRG cells, 19° C.): −0.99 | Intracellular Calcium changes [(F1 − F0)/F0/%] (TRPV1 [3]; Table 9, DRG cells, 37° C. 24 h, 2.5 μmol/L): 98.15 ± 10.71% | Intracellular Calcium changes [(F1 − F0)/F0/%] (TRPV1 [3]; Table 9, DRG cells, 37° C. 24 h, 5 μmol/L): 98.64 ± 12.77% | Intracellular Calcium changes [(F1 − F0)/F0/%] (TRPV1 [3]; Table 9, DRG cells, 37° C. 24 h, 10 μmol/L): 96.33 ± 8.96% | Intracellular Calcium changes [(F1 − F0)/F0/%] (TRPV1 [3]; Table 10, DRG cells, 37° C. 22 h then 39° C. 2 h, 2.5 μmol/L): 128.63 ± 14.40% | Intracellular Calcium changes [(F1 − F0)/F0/%] (TRPV1 [3]; Table 10, DRG cells, 37° C. 22 h then 39° C. 2 h, 5 μmol/L): 120.51 ± 11.29% | Intracellular Calcium changes [(F1 − F0)/F0/%] (TRPV1 [3]; Table 10, DRG cells, 37° C. 22 h then 39° C. 2 h, 10 μmol/L): 119.49 ± 11.21% | Intracellular Calcium changes [(F1 − F0)/F0/%] (TRPV1 [3]; Table 11, DRG cells, 37° C. 21 h then 19° C. 3 h, 2.5 μmol/L): 99.71 ± 10.96% | Intracellular Calcium changes [(F1 − F0)/F0/%] (TRPV1 [3]; Table 11, DRG cells, 37° C. 21 h then 19° C. 3 h, 5 μmol/L): 98.30 ± 11.89% | Intracellular Calcium changes [(F1 − F0)/F0/%] (TRPV1 [3]; Table 11, DRG cells, 37° C. 21 h then 19° C. 3 h, 10 μmol/L): 93.02 ± 10.54% | inhibition concentration on breast cancer cells (breast cancer cells): below 2.1 μg/ml | Inhibition concentration [4]: 5.95 µg/mL | Effect on TRPM8 mRNA expression (in words) (TRPM8 mRNA; 19° C.): up-regulate the expression levels of TRPM8 mRNA dose-dependently | Effect on TRPM8 mRNA expression (in words) (TRPM8 mRNA; 37° C.): up-regulate the expression levels of TRPM8 mRNA dose-dependently | TRPM8 mRNA expression (2^−ΔΔCT) (TRPM8 mRNA; [7]): 3.25 ± 0.65 | TRPM8 mRNA expression (2^−ΔΔCT) (TRPM8 mRNA; [8]): 3.37 ± 0.87 | TRPM8 mRNA expression (2^−ΔΔCT) (TRPM8 mRNA; [9]): 3.49 ± 0.82 | TRPM8 mRNA expression (2^−ΔΔCT) (TRPM8 mRNA; [10]): 0.74 ± 0.23 | TRPM8 mRNA expression (2^−ΔΔCT) (TRPM8 mRNA; [11]): 0.78 ± 0.33 | TRPM8 mRNA expression (2^−ΔΔCT) (TRPM8 mRNA; [12]): 0.79 ± 0.24 | TRPM8 mRNA expression (2^−ΔΔCT) (TRPM8 mRNA; 37° C. 24 h, 2.5 μmol/L): 1.10 ± 0.27 | TRPM8 mRNA expression (2^−ΔΔCT) (TRPM8 mRNA; 37° C. 24 h, 5 μmol/L): 1.14 ± 0.31 | TRPM8 mRNA expression (2^−ΔΔCT) (TRPM8 mRNA; 37° C. 24 h, 10 μmol/L): 1.28 ± 0.27 | Effect on TRPM8 mRNA expression (in words) (TRPM8 mRNA; 39° C.): did not up-regulate TRPM8 mRNA expression | Effect compared with the agonist hexahydrothymol (in words) (TRPM8 mRNA; general statement on TRPM8): stronger effect than hexahydrothymol | Inhibition concentration [5]: 1.30 µg/mL | Inhibition concentration [6]: 2.05 µg/mL
